Measurements from PMC6325233, “A Novel Actin Binding Drug with In Vivo Efficacy” (Antimicrobial Agents and Chemotherapy, 2018).

How the values were obtained:
Format in all cases: cell-based
[1] = test system: Trichophyton rubrum 11199; test: MIC susceptibility testing (terbinafine-resistant strain); conditions: CLSI M38-A2; 96 hours
Method: (§1) Occidiofungin was purified from a liquid culture of Burkholderia contaminans MS14 as previously described ([21]). MIC susceptibility testing was performed according to the CLSI M27-A3 and M38-A2 standards for the susceptibility testing of yeasts and filamentous fungi, respectively. S. cerevisiae deletion mutants were obtained from the commercially available BY4741 deletion library (Thermo Scientific).

[2] = test system: Aspergillus fumigatus 28436; test: MIC susceptibility testing; conditions: CLSI M38-A2
Method: as §1

Candida albicans 28200 = test: MIC susceptibility testing; conditions: CLSI M27-A3
Method: as §1

Candida auris MRL# 35646 = test: MIC susceptibility testing; conditions: CLSI M27-A3; 24 hours
Method: as §1

Candida auris MRL# 35651 = test: MIC susceptibility testing; conditions: CLSI M27-A3; 24 hours
Method: as §1

Candida glabrata 28271 = test: MIC susceptibility testing; conditions: CLSI M27-A3
Method: as §1

Candida krusei 28570 = test: MIC susceptibility testing; conditions: CLSI M27-A3
Method: as §1

[3] = test system: Candida parapsilosis 28364; test: MIC susceptibility testing; conditions: CLSI M27-A3
Method: as §1

Candida tropicalis 28272 = test: MIC susceptibility testing; conditions: CLSI M27-A3
Method: as §1

Candida tropicalis 28478 = test: MIC susceptibility testing; conditions: CLSI M27-A3
Method: as §1

Fusarium solani 18749 = test: MIC susceptibility testing; conditions: CLSI M38-A2
Method: as §1

[4] = test system: Mucor circinelloides 19445; test: MIC susceptibility testing; conditions: CLSI M38-A2
Method: as §1

[5] = test system: Trichophyton mentagrophytes 28556; test: MIC susceptibility testing; conditions: CLSI M38-A2; 96 hours
Method: as §1

[6] = test system: Trichophyton mentagrophytes 28641; test: MIC susceptibility testing; conditions: CLSI M38-A2; 96 hours
Method: as §1

[7] = test system: Trichophyton rubrum 28658; test: MIC susceptibility testing; conditions: CLSI M38-A2; 96 hours
Method: as §1

[8] = test system: Trichophyton rubrum 28659; test: MIC susceptibility testing; conditions: CLSI M38-A2; 96 hours
Method: as §1

occidiofungin
MIC, 80% inhibition [1]: 1 µg/mL | MIC, 100% inhibition [1]: 2 µg/mL | MIC, 50% inhibition ([2]; 24 hours): 2 µg/mL | MIC, 100% inhibition ([2]; 24 hours): 4 µg/mL | MIC, 50% inhibition ([2]; 48 hours): 2 µg/mL | MIC, 100% inhibition ([2]; 48 hours): 4 µg/mL | MIC, 50% inhibition (Candida albicans 28200; 24 hours): 4 µg/mL | MIC, 100% inhibition (Candida albicans 28200; 24 hours): 8 µg/mL | MIC, 50% inhibition (Candida albicans 28200; 48 hours): 4 µg/mL | MIC, 100% inhibition (Candida albicans 28200; 48 hours): 8 µg/mL | MIC, 50% inhibition (Candida auris MRL# 35646): 0.125 µg/mL | MIC, 100% inhibition (Candida auris MRL# 35646): 0.25 µg/mL | MIC, 50% inhibition (Candida auris MRL# 35651): 0.125 µg/mL | MIC, 100% inhibition (Candida auris MRL# 35651): 0.25 µg/mL | MIC, 50% inhibition (Candida glabrata 28271; 24 hours): 4 µg/mL | MIC, 100% inhibition (Candida glabrata 28271; 24 hours): 8 µg/mL | MIC, 50% inhibition (Candida glabrata 28271; 48 hours): 4 µg/mL | MIC, 100% inhibition (Candida glabrata 28271; 48 hours): 8 µg/mL | MIC, 50% inhibition (Candida krusei 28570; 24 hours): 4 µg/mL | MIC, 100% inhibition (Candida krusei 28570; 24 hours): 8 µg/mL | MIC, 50% inhibition (Candida krusei 28570; 48 hours): 4 µg/mL | MIC, 100% inhibition (Candida krusei 28570; 48 hours): 8 µg/mL | MIC, 50% inhibition ([3]; 24 hours): 4 µg/mL | MIC, 100% inhibition ([3]; 24 hours): 8 µg/mL | MIC, 50% inhibition ([3]; 48 hours): 4 µg/mL | MIC, 100% inhibition ([3]; 48 hours): 8 µg/mL | MIC, 50% inhibition (Candida tropicalis 28272; 24 hours): 4 µg/mL | MIC, 100% inhibition (Candida tropicalis 28272; 24 hours): 8 µg/mL | MIC, 50% inhibition (Candida tropicalis 28272; 48 hours): 4 µg/mL | MIC, 100% inhibition (Candida tropicalis 28272; 48 hours): 8 µg/mL | MIC, 50% inhibition (Candida tropicalis 28478; 24 hours): 4 µg/mL | MIC, 100% inhibition (Candida tropicalis 28478; 24 hours): 8 µg/mL | MIC, 50% inhibition (Candida tropicalis 28478; 48 hours): 4 µg/mL | MIC, 100% inhibition (Candida tropicalis 28478; 48 hours): 8 µg/mL | MIC, 50% inhibition (Fusarium solani 18749; 24 hours): 2 µg/mL | MIC, 100% inhibition (Fusarium solani 18749; 24 hours): 4 µg/mL | MIC, 50% inhibition (Fusarium solani 18749; 48 hours): 2 µg/mL | MIC, 100% inhibition (Fusarium solani 18749; 48 hours): 4 µg/mL | MIC, 50% inhibition ([4]; 24 hours): 4 µg/mL | MIC, 100% inhibition ([4]; 24 hours): 8 µg/mL | MIC, 50% inhibition ([4]; 48 hours): 4 µg/mL | MIC, 100% inhibition ([4]; 48 hours): 8 µg/mL | MIC, 80% inhibition [5]: 1 µg/mL | MIC, 100% inhibition [5]: 2 µg/mL | MIC, 80% inhibition [6]: 1 µg/mL | MIC, 100% inhibition [6]: 2 µg/mL | MIC, 80% inhibition [7]: 1 µg/mL | MIC, 100% inhibition [7]: 2 µg/mL | MIC, 80% inhibition [8]: 1 µg/mL | MIC, 100% inhibition [8]: 2 µg/mL
